Experiments:
[1] = target: T1, AXL (Homo sapiens, UniProt P30530); experiment: TR-FRET kinase activity assay, AXL; type: biochemical; conditions: ATP at Km, 60 minutes
T1 sequence (P30530 26-894): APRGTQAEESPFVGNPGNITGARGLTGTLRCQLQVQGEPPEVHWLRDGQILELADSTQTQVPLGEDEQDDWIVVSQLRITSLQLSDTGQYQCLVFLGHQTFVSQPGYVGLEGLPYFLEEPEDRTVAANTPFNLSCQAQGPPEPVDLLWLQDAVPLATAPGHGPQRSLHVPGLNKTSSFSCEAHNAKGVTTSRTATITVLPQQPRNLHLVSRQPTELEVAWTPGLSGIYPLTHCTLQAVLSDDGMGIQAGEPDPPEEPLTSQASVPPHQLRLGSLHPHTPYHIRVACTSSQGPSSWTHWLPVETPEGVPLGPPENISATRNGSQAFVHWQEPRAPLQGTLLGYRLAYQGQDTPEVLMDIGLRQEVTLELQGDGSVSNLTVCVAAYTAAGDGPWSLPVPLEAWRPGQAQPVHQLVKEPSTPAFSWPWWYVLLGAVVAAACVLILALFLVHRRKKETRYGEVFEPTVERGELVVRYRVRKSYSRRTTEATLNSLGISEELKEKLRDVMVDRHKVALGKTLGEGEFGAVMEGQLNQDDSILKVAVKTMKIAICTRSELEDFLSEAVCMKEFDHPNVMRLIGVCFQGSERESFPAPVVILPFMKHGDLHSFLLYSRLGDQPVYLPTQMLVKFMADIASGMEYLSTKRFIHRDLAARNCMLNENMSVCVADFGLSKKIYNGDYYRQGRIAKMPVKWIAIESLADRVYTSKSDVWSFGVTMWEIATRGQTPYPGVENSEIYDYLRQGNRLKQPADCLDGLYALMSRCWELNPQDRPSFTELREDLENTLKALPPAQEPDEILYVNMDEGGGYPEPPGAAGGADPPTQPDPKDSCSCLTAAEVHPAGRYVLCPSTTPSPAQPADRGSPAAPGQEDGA
How it was run: (§1)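 Enzyme, fluorescent peptide substrate and compound were mixed, and the reaction was started with ATP at each kinase's Km, in 50 mM HEPES pH 7.5, 10 mM MgCl2, 1 mM EGTA, 0.01% Brij 35, 1 mM DTT at RT. After 60 minutes EDTA quench, Eu-labelled phospho-specific antibody was added for 30 minutes, and IC50 was derived from TR-FRET signal loss.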

[2] = target: T2, FLT3 (Homo sapiens, UniProt P36888); experiment: TR-FRET kinase activity assay, FLT3; type: biochemical; conditions: ATP at Km, 60 minutes
T2 sequence (P36888 27-993): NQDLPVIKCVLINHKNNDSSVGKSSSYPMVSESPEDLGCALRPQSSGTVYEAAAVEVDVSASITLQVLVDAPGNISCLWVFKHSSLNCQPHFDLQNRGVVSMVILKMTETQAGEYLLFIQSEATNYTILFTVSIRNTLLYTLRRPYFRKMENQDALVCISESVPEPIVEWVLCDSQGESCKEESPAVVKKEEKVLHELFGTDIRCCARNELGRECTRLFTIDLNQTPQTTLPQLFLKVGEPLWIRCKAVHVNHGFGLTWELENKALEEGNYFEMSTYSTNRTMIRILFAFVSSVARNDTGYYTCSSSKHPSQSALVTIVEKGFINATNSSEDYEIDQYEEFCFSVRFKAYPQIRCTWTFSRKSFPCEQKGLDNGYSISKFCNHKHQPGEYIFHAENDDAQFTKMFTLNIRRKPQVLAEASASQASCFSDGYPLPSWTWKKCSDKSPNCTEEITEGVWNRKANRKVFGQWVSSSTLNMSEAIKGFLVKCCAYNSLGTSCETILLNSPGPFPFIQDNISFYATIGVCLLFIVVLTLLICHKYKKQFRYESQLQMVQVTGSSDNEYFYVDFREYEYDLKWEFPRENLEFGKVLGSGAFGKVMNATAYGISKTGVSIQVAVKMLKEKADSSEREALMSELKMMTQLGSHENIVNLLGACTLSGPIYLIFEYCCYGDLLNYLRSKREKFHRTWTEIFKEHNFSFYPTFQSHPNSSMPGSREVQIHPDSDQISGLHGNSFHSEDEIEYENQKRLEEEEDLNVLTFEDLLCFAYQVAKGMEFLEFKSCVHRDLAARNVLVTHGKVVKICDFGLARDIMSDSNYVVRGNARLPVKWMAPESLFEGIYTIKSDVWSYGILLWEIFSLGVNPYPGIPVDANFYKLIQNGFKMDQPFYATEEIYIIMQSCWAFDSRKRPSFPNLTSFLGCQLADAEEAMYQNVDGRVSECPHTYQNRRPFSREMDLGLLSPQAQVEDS
How it was run: as §1

Structure (SMILES) | IC50 [1] [nM] | IC50 [2] [nM]
COC[C@H](C)Nc1ncc2c(-c3cnn(Cc4noc(C)n4)c3)cc([C@H]3CC[C@H](O)CC3)n2n1 [Compound 285] | ≤ 100 | 100 to 1000
C[C@@H](CC(F)(F)F)Nc1ncc2c(-c3cncc(C(=O)N(C)C)c3)cc([C@H]3CC[C@H](O)CC3)n2n1 [Compound 310] | ≤ 100 | 100 to 1000
Cc1cc(-c2cc([C@H]3CC[C@H](O)CC3)n3nc(N[C@@H](C)C(F)F)ncc23)ccn1 [Compound 309] | ≤ 100 | 100 to 1000
CNC(=O)c1ncc(-c2cc([C@H]3CC[C@H](O)CC3)n3nc(N[C@@H](C)COC)ncc23)cn1 [Compound 334] | 100 to 1000 | 1000 to 10000
COC[C@H](C)Nc1ncc2c(-c3ccnc(N4CCNC(=O)C4)c3)cc([C@H]3CC[C@H](O)CC3)n2n1 [Compound 340] | ≤ 100 | 100 to 1000
C[C@@H](CC(F)(F)F)Nc1ncc2c(-c3cncc(C(=O)N4CCOCC4)c3)cc([C@H]3CC[C@H](O)CC3)n2n1 [Compound 311] | ≤ 100 | 100 to 1000
CNc1c(N[C@H]2CC[C@H](c3cc(-c4ccc(CN5CCOCC5)cc4)c4cnc(N[C@@H](C)COC)nn43)CC2)c(=O)c1=O [Compound 316, 3-(((trans)-4-(2-(((S)-1-methoxypropan-2-yl)amino)-5-(4-(morpholinomethyl)phenyl)pyrrolo[2,1-f][1,2,4]triazin-7-yl)cyclohexyl)amino)-4-(methylamino)cyclobut-3-ene-1,2-dione] | ≤ 100 | ≤ 100

Reference: patent publication US11040981B2, “Pyrrolotriazine compounds and methods of inhibiting TAM kinases” (Syros Pharmaceuticals, Inc., priority 2017, dated 2021)
